Data as given in ChEMBL document CHEMBL5724914, “Linking interpersonal differences in gut microbiota composition and drug biotransformation activity” (2024).

Assays:
[1] = (§1) The drug is tested on Z-025 corresponding to rabbit gut metagenome with ENA study accession number: PRJEB37062 and ENA sample accession number: ERS12561824 for biotransformation under anaerobic condition. The drug concentrations were measured over 9 timepoints collected between 0 and 24 hours of incubation by liquid-chromatography-coupled mass spectrometry (LC–MS); settings: 2 µM
[2] = as §1, with “Z-021” for “Z-025”, “to” for “to rabbit gut”, “ERS12561820” for “ERS12561824”; settings: 2 µM
[3] = as §1, with “Z-018” for “Z-025”, “pig” for “rabbit”, “ERS12561817” for “ERS12561824”; settings: 2 µM
[4] = as §1, with “Z-017” for “Z-025”, “mouse” for “rabbit”, “ERS12561816” for “ERS12561824”; settings: 2 µM
[5] = as §1, with “Z-013” for “Z-025”, “ERS12561813” for “ERS12561824”; settings: 2 µM
[6] = as §1, with “Z-012” for “Z-025”, “to” for “to rabbit gut”, “ERS12561812” for “ERS12561824”; settings: 2 µM
[7] = as §1, with “Z-008” for “Z-025”, “to” for “to rabbit gut”, “ERS12561808” for “ERS12561824”; settings: 2 µM
[8] = as §1, with “Z-006” for “Z-025”, “mouse” for “rabbit”, “ERS12561806” for “ERS12561824”; settings: 2 µM
[9] = as §1, with “WLS-098” for “Z-025”, “human” for “rabbit”, “ERS12561754” for “ERS12561824”; settings: 2 µM
[10] = as §1, with “WLS-077” for “Z-025”, “human” for “rabbit”, “ERS12561750” for “ERS12561824”; settings: 2 µM
[11] = as §1, with “WLS-007” for “Z-025”, “human” for “rabbit”, “ERS12561742” for “ERS12561824”; settings: 2 µM
[12] = human gut metagenome, 24 h, 2 µM
[13] = human gut metagenome, 24 h, 2 µM; remark: listed apart in the source
[14] = human gut metagenome, 24 h, 2 µM; remark: listed apart in the source
[15] = human gut metagenome, 24 h, 2 µM; remark: listed apart in the source
[16] = human gut metagenome, 24 h, 2 µM; remark: listed apart in the source
[17] = human gut metagenome, 24 h, 2 µM; remark: listed apart in the source
[18] = human gut metagenome, 24 h, 2 µM; remark: listed apart in the source
[19] = human gut metagenome, 24 h, 2 µM; remark: listed apart in the source
[20] = human gut metagenome, 24 h, 2 µM; remark: listed apart in the source
Also: call rule not given here.

Compound	Bacterial Biotransformation [1]	Bacterial Biotransformation [2]	Bacterial Biotransformation [3]	Bacterial Biotransformation [4]	Bacterial Biotransformation [5]	Bacterial Biotransformation [6]	Bacterial Biotransformation [7]	Bacterial Biotransformation [8]	Bacterial Biotransformation [9]	Bacterial Biotransformation [10]	Bacterial Biotransformation [11]	Bacterial Biotransformation [12]	Bacterial Biotransformation [13]	Bacterial Biotransformation [14]	Bacterial Biotransformation [15]	Bacterial Biotransformation [16]	Bacterial Biotransformation [17]	Bacterial Biotransformation [18]	Bacterial Biotransformation [19]	Bacterial Biotransformation [20]
CCN(CC)CC#CCOC(=O)C(O)(c1ccccc1)C1CCCCC1.Cl (stereo not given) [OXYBUTYNIN CHLORIDE]	Compound NOT metabolized	Compound metabolized	Compound metabolized	Compound NOT metabolized	Compound NOT metabolized	Compound metabolized	Compound NOT metabolized	Compound NOT metabolized	Compound metabolized	Compound metabolized	Compound metabolized	Compound metabolized	Compound metabolized	Compound NOT metabolized	Compound metabolized	Compound metabolized	Compound metabolized	Compound metabolized	Compound metabolized	Compound metabolized
CC[C@@H](CO)NC(=O)[C@@H]1C=C2c3cccc4c3c(cn4C)C[C@H]2N(C)C1.O=C(O)/C=C\C(=O)O [METHYSERGIDE MALEATE]	Compound NOT metabolized	Compound NOT metabolized	Compound NOT metabolized	Compound NOT metabolized	Compound NOT metabolized	Compound NOT metabolized	Compound NOT metabolized	Compound NOT metabolized	Compound NOT metabolized	Compound NOT metabolized	Compound NOT metabolized	Compound NOT metabolized	Compound metabolized	Compound NOT metabolized	Compound NOT metabolized	Compound NOT metabolized	Compound NOT metabolized	Compound NOT metabolized	Compound NOT metabolized	Compound metabolized
CN1CCOC(c2ccccc2)c2ccccc2C1 (stereo not given) [NEFOPAM]	Compound NOT metabolized	Compound NOT metabolized	Compound NOT metabolized	Compound NOT metabolized	Compound NOT metabolized	Compound NOT metabolized	Compound NOT metabolized	Compound NOT metabolized	Compound metabolized	Compound NOT metabolized	Compound metabolized	Compound metabolized	Compound metabolized	Compound NOT metabolized	Compound metabolized	Compound NOT metabolized	Compound NOT metabolized	Compound NOT metabolized	Compound NOT metabolized	Compound metabolized
CN1CC(=O)N2[C@H](c3ccc4c(c3)OCO4)c3[nH]c4ccccc4c3C[C@@H]2C1=O	Compound NOT metabolized	Compound metabolized	Compound metabolized	Compound NOT metabolized	Compound NOT metabolized	Compound metabolized	Compound NOT metabolized	Compound NOT metabolized	Compound metabolized	Compound metabolized	Compound metabolized	Compound metabolized	Compound metabolized	Compound NOT metabolized	Compound metabolized	Compound NOT metabolized	Compound metabolized	Compound NOT metabolized	Compound metabolized	Compound metabolized
